# Data: US20110070232A1, “Combination Therapy with an Antitumor Alkaloid” (Pharma Mar, S.A., priority 2008, published 2011)
# Like-named read-outs stand apart in the source and are kept apart here.
# How the values were obtained:
# MRI-H-254 tumors = format: in vivo, mice
# Method: Female athymic nude mice (Harlan Sprague Dawley, Madison, Wis.) were utilized for all experiments. Animals were housed in ventilated rack caging with food and water ad libitum. The mice were acclimated for at least 5 days prior to tumor implantation with tumor fragments.
# Treatments were initiated on DPI 20.
# (§1) Tumor size measurements were recorded twice weekly from the treatment initiation until the termination of the study.
# (§2) Mean, standard deviation and standard error of the mean were determined for tumor volume for all animal groups at all assessments. Student's t test was performed on tumor volumes at each measurement day, including at the end of the study, to determine whether there were any statistically significant differences between combination treatment groups and single monotherapy treatment groups.
# Hs746T tumors = format: in vivo, mice; conditions: for % T/C on day 14 / % T/C on day 19 / % T/C on day 22 / % T/C on day 26 / % T/C on day 29 / % T/C on day 32 / % T/C on day 39: PM00104 0.90 IV, DPI 14, 21, 28
# Method: Female athymic nude mice (Harlan Sprague Dawley, Madison, Wis.) were utilized for all experiments. Animals were housed in ventilated rack caging with food and water ad libitum. The mice were acclimated for at least 5 days prior to tumor implantation with a tumor cell suspension.
# The tumor model used in these studies was Hs746T cell line, which was obtained from the ATCC (Manassas, Va.).
# Treatments were initiated on DPI 14.
# as §1, §2
# [1] = system: LoVo (colon cancer) cell line; assay: IC50 determination, MIT (tetrazolium) assay, 72 h (Example 18); format: cell-based, human; conditions: 72 hours of drug exposure
# Method: (§3) Before plating, cell cultures were trypsinized and cell number estimated using an automated flow cytometer.
# (§4) Cells were harvested and seeded in 96 well microtiter plates at the appropriate cell density (5,000-10,000 cells) in 150 μL of media and incubated for 24 hours to allow the cells to attach before drug addition.
# (§5) After the incubation period (72 hours), 50 μL of MIT solution was added to each microtiter well and incubated for further 8 hours at 37° C. The culture medium was then removed and 50 μl, of DMSO were added to dissolve the MIT crystals. Optical densities were read at 540 nm on spectrophotometer microplate reader.
# (§6) IC50 values were calculated from an average of two to four assays for each of the test agents.
# [2] = system: HT-29 (colon cancer) cell line; assay: as above; format: cell-based, human; conditions: HT-29, 72 hours of drug exposure
# Method: as §3, §4, §5, §6
# [3] = system: HCT-116 (colon cancer) cell line; assay: as above; format: cell-based, human; conditions: HCT-116, 72 hours of drug exposure
# Method: HCT-116 cells were grown in McCoy's supplemented with 10% Fetal Bovine Serum (FBS), 1% penicillin/streptomycin and 2 mM L-glutamine.
# as §3, §4, §5, §6
# [4] = system: HGC-27 human gastric carcinoma cell line; assay: IC50 determination, MTS assay, 72 h (Example 1); format: cell-based; conditions: 72 hours of drug exposure
# Method: (§7) The human gastric carcinoma cell lines selected for this assay were the following: Hs746T, HGC-27, and AGS cell lines. Hs746T and AGS cell lines were grown in Dulbecco's modified Eagle's medium (DMEM) supplemented with 10% Fetal Bovine Serum (FBS), 1.5 g/L sodium bicarbonate, 4.5 g/L glucose and 4 mM L-glutamine. HGC-27 cell line was grown in Iscove's modified Dulbecco's medium (IMDM) supplemented with 20% FBS and 2 mM L-glutamine.
# (§8) The day before plating, the cells were fed with fresh, complete growth media. On the harvest (plating) day, cells were counted by Trypan Blue exclusion staining method.
# (§9) Cells were harvested and seeded in 96 well microtiter plates at 10,000 cells density in 150 μL of media and incubated for 24 hours to allow the cells to attach before drug addition. To collect reference data, the MTS assay was done on untreated cells at time 0 (after incubation of cells for 24 hours).
# (§10) The cytotoxic effect was measured by the MTS Assay (Tetrazolium), which is a colorimetric method for determining the number of viable cells. After the incubation period (24 hours for the Day 0 plate and 72 hours for the Test and Control plates), 25 μL of MTS+PMS solution was added to each microtiter well and incubated for 4 hours at 37° C. Plates were then removed from incubator and placed on plate shaker for 5 minutes (covered with aluminum foil for protection from light). Optical densities were read at 490 nm on spectrophotometer plate reader.
# as §6
# [5] = system: AGS human gastric carcinoma cell line; assay: IC50 determination, MTS assay, 72 h (Example 1); format: cell-based; conditions: 72 hours of drug exposure
# Method: as §7, §8, §9, §10, §6
# [6] = system: Hs746T human gastric carcinoma cell line; assay: IC50 determination, MTS assay, 72 h (Example 1); format: cell-based; conditions: 72 hours of drug exposure
# Method: as §7, §8, §9, §10, §6
# [7] = PM00104 0.90 IV, docetaxel 8 IP, oxaliplatin 4 IP mg/kg/day (G4, G6, G8, G10), DPI 20, 27, 34
# [8] = PM00104 0.90 IV, docetaxel 16 IP, oxaliplatin 8 IP mg/kg/day (G2, G3, G5, G7, G9), DPI 20, 27, 34
# [9] = docetaxel 8 IP, oxaliplatin 4 IP mg/kg/day (G4, G6, G8, G10)
# [10] = docetaxel 16 IP, oxaliplatin 8 IP mg/kg/day (G2, G3, G5, G7, G9)
structure (smiles),measurement,setting,value
"O=C1[O][Pt]2([NH][C@@H]3CCCC[C@H]3[NH]2)[O]C1=O [Oxaliplatin, oxaliplatin]",% T/C on day 20,MRI-H-254 tumors; [7],94.5%
same,% T/C on day 23,MRI-H-254 tumors; [7],118.5%
same,% T/C on day 27,MRI-H-254 tumors; [7],113.6%
same,% T/C on day 33,MRI-H-254 tumors; [7],107.6%
same,% T/C on day 36,MRI-H-254 tumors; [7],115.1%
same,% T/C on day 40,MRI-H-254 tumors; [7],115.0%
same,% T/C on day 48,MRI-H-254 tumors; [7],92.4%
same,% T/C on day 20,MRI-H-254 tumors; [8],95.1%
same,% T/C on day 23,MRI-H-254 tumors; [8],100.9%
same,% T/C on day 27,MRI-H-254 tumors; [8],77.2%
same,% T/C on day 30,MRI-H-254 tumors; [8],81.7%
same,% T/C on day 33,MRI-H-254 tumors; [8],75.0%
same,% T/C on day 36,MRI-H-254 tumors; [8],71.1%
same,% T/C on day 40,MRI-H-254 tumors; [8],67.5%
same,% T/C on day 48,MRI-H-254 tumors; [8],55.9%
same,% Inhibition,"MRI-H-254 tumors; day 20, PM00104 0.9 and oxaliplatin 4 mg/kg/day",5.5%
same,% Inhibition,"MRI-H-254 tumors; day 20, PM00104 0.9 and oxaliplatin 8 mg/kg/day",4.9%
same,% Inhibition,"MRI-H-254 tumors; day 23, PM00104 0.9 and oxaliplatin 4 mg/kg/day",−18.5%
same,% Inhibition,"MRI-H-254 tumors; day 23, PM00104 0.9 and oxaliplatin 8 mg/kg/day",−0.9%
same,% Inhibition,"MRI-H-254 tumors; day 27, PM00104 0.9 and oxaliplatin 4 mg/kg/day",−13.6%
same,% Inhibition,"MRI-H-254 tumors; day 27, PM00104 0.9 and oxaliplatin 8 mg/kg/day",22.8%
same,% Inhibition,"MRI-H-254 tumors; day 30, PM00104 0.9 and oxaliplatin 4 mg/kg/day",−17.1%
same,% Inhibition,"MRI-H-254 tumors; day 30, PM00104 0.9 and oxaliplatin 8 mg/kg/day",18.3%
same,% Inhibition,"MRI-H-254 tumors; day 33, PM00104 0.9 and oxaliplatin 4 mg/kg/day",−7.6%
same,% Inhibition,"MRI-H-254 tumors; day 33, PM00104 0.9 and oxaliplatin 8 mg/kg/day",25.0%
same,% Inhibition,"MRI-H-254 tumors; day 36, PM00104 0.9 and oxaliplatin 4 mg/kg/day",−15.1%
same,% Inhibition,"MRI-H-254 tumors; day 36, PM00104 0.9 and oxaliplatin 8 mg/kg/day",28.9%
same,% Inhibition,"MRI-H-254 tumors; day 40, PM00104 0.9 and oxaliplatin 4 mg/kg/day",−15.0%
same,% Inhibition,"MRI-H-254 tumors; day 40, PM00104 0.9 and oxaliplatin 8 mg/kg/day",32.5%
same,% Inhibition,"MRI-H-254 tumors; day 48, PM00104 0.9 and oxaliplatin 4 mg/kg/day",7.6%
same,% Inhibition,"MRI-H-254 tumors; day 48, PM00104 0.9 and oxaliplatin 8 mg/kg/day",44.1%
same,% T/C on day 14,Hs746T tumors; [9],99.9%
same,% T/C on day 19,Hs746T tumors; [9],79.9%
same,% T/C on day 22,Hs746T tumors; [9],83.8%
same,% T/C on day 26,Hs746T tumors; [9],78.6%
same,% T/C on day 29,Hs746T tumors; [9],84.2%
same,% T/C on day 32,Hs746T tumors; [9],87.5%
same,% T/C on day 39,Hs746T tumors; [9],108.4%
same,% T/C on day 14,Hs746T tumors; [10],99.6%
same,% T/C on day 19,Hs746T tumors; [10],83.5%
same,% T/C on day 22,Hs746T tumors; [10],84.9%
same,% T/C on day 26,Hs746T tumors; [10],89.1%
same,% T/C on day 29,Hs746T tumors; [10],84.5%
same,% T/C on day 32,Hs746T tumors; [10],91.2%
same,% T/C on day 39,Hs746T tumors; [10],102.9%
same,% Inhibition,"Hs746T tumors; day 14, PM00104 0.9 and oxaliplatin 4 mg/kg/day",0.1%
same,% Inhibition,"Hs746T tumors; day 14, PM00104 0.9 and oxaliplatin 8 mg/kg/day",0.4%
same,% Inhibition,"Hs746T tumors; day 19, PM00104 0.9 and oxaliplatin 4 mg/kg/day",20.1%
same,% Inhibition,"Hs746T tumors; day 19, PM00104 0.9 and oxaliplatin 8 mg/kg/day",16.5%
same,% Inhibition,"Hs746T tumors; day 22, PM00104 0.9 and oxaliplatin 4 mg/kg/day",16.2%
same,% Inhibition,"Hs746T tumors; day 22, PM00104 0.9 and oxaliplatin 8 mg/kg/day",15.1%
same,% Inhibition,"Hs746T tumors; day 26, PM00104 0.9 and oxaliplatin 4 mg/kg/day",21.4%
same,% Inhibition,"Hs746T tumors; day 26, PM00104 0.9 and oxaliplatin 8 mg/kg/day",10.9%
same,% Inhibition,"Hs746T tumors; day 29, PM00104 0.9 and oxaliplatin 4 mg/kg/day",15.8%
same,% Inhibition,"Hs746T tumors; day 29, PM00104 0.9 and oxaliplatin 8 mg/kg/day",15.5%
same,% Inhibition,"Hs746T tumors; day 32, PM00104 0.9 and oxaliplatin 4 mg/kg/day",12.5%
same,% Inhibition,"Hs746T tumors; day 32, PM00104 0.9 and oxaliplatin 8 mg/kg/day",8.8%
same,% Inhibition,"Hs746T tumors; day 39, PM00104 0.9 and oxaliplatin 4 mg/kg/day",−8.4%
same,% Inhibition,"Hs746T tumors; day 39, PM00104 0.9 and oxaliplatin 8 mg/kg/day",−2.9%
same,IC50,[1],3.2 µM
same,IC50,[2],38 µM
same,IC50,[3],140 µM
same,IC50,[4],0.192 µg/mL
same,IC50,[5],0.289 µg/mL
same,IC50,[6],8.14 µg/mL
